# Measurements: patent US20190359645A1, “2'3'-CYCLIC DINUCLEOTIDES COMPRISING CARBOCYCLIC NUCLEOTIDE” (Institute of Organic Chemistry and Biochemistry ASCR, V.V.I., priority 2018, published 2019)
# What was measured:
# AQ STING (G230A-R293Q) = molecular target: T1, AQ STING (G230A-R293Q) (Homo sapiens, UniProt Q86WV6, G230A/H232R/R293Q); assay: Differential scanning fluorimetry (DSF) with AQ STING; type: binding; conditions: thermal shift, truncated human AQ STING 0.1 mg/ml, 150 μM CDN; for ΔTm at 150 µM: read-out: DSF ΔTm AQ STING
# T1 construct: truncated human WT STING or AQ STING (amino acid residues 140-343); 8xHis (N, cleaved yes); SUMO (N, cleaved yes); made in house; host or cells: E. coli Rosetta-gami B (DE3)
# From the text: (§1) Both WT and AQ human STING (G230A-R^293Q) cDNA were amplified by the use of PCR (Phusion® High-Fidelity DNA Polymerase, cat. # M0530S, NEB, Ipswich, USA) using oligonucleotides hSTING140-BamH-For ([…]) (SEQ ID NO:5) and hSTING379-Not-Rev3 ([…]) (SEQ ID NO:6) from pUNOI-hSTING-WT (cat. # punol-hstingwt, InvivoGen, San Diego, USA) and pUNO1-hSTING-HAQ plasmids (punol-hsting-haq, InvivoGen, San Diego, USA). Purified PCR products were cleaved with restriction enzymes BamHI (cat. # R^0136S, NEB, Ipswich, USA) and NotI (cat. # R^0189S, NEB, Ipswich, USA) and cloned into the pSUMO vector linearized with the identical enzymes. Plasmid pSUMO was created by introducing 8-His-SUMO sequence between NdeI and BamHI sites of pHis-parallel2 plasmid (Clontech, Moutain View, USA). pSUMO-STING WT or pSUMO-STING AQ plasmids thus encoded truncated human WT STING or AQ STING (amino acid residues 140-343) with N-terminal 8×His and SUMO tag.
# (§2) The recombinant WT STING and AQ STING proteins were overexpressed in Rosetta-gami B (DE3) competent cells (cat. #71136-3, Merck Millipore, Billerica, USA). Bacterial pellets were re-suspended in ice-cold lysis buffer containing 50 mmol·l^−1 TrisCl (cat. # T1503, Sigma Aldrich, Czech Republic) pH 8.0, 300 mmol·l^−1 NaCl, 3 mmol·l^−1 (3-mercaptoethanol (cat. # M6250, Sigma Aldrich, Czech Republic), 10% glycerol (cat. #G5516, Sigma Aldrich, Czech Republic) and 20 mmol·l^−1 imidazole (cat. #15513, Sigma Aldrich, Czech Republic) using Dounce homogenizer. DNase I (cat. # D5025, Sigma Aldrich, Czech Republic) and RNase A (cat. # R^6513, Sigma Aldrich, Czech Republic) were added (final concentration 50 μg/ml) together with MgCl2 (final concentration 5 mmol·l^−1) to the homogenate and bacteria were lysed using French Press G-M™ High-Pressure Cell Press Homogenizer (1500 psi, 3 cycles). Lysate was spun 30,000 g for 20 minutes and supernatant was gently stirred with Ni-NTA resin (cat. #745400.25 Macherey-Nagel, Duren, Germany) for 30 minutes. The resin was poured into a chromatography column, washed with 50 ml buffer A (50 mmol·l^−1 TrisCl (pH 8.0), 800 mmol·l^−1 NaCl, 3 mmol·l^−1β-mercaptoethanol; 10% glycerol; 20 mmol·l^−1 imidazole) and 8-His-SUMO tagged STING proteins were eluted with 15 ml buffer A containing 300 mmol·l^−1 imidazole. The eluted proteins were cleaved with recombinant SUMO protease (80 pig/ml of protein solution, cat. #12588018, ThermoFisher, Waltham, USA). The proteins were further purified by size exclusion chromatography using HiLoad 16/60 Superdex 75 (cat. #28989333, GE Healthcare Bio-Sciences, Pittsburgh, USA) in 50 mmol·l^−1 Tris C1 buffer pH 7.4 containing 150 mmol·l^−1 NaCl, and 10% glycerol. Proteins were concentrated with Amicon® Ultra-15 10 K device (cat. # UFC901008, Merck Millipore, Billerica, USA) and flash frozen in liquid N2.
# (§3) WT and AQ allelic forms of STING protein were diluted to the final concentration 0.1 mg/ml in 100 mmol·l^−1 TrisCl buffer pH 7.4 containing, 150 mmol·l^−1 NaCl, 1:500 SYPRO Orange (cat. # S6650, ThermoFisher, Waltham, USA) and 150 μM CDN or water. 20 μL solutions of the reaction mixtures were pipetted in triplicates into 96 well optical reaction plates and thermal denaturation of samples were performed on real time PCR cycler (LightCycler® 480 Instrument II—Roche, Basel, Switzerland). The first derivative of the thermal denaturation curves was performed to calculate denaturing temperatures of STING-CDN complexes and STING apoproteins. The thermal shift for each CDN was calculated by subtracting the average denaturing temperature of STING apoprotein from the average denaturing temperature of STING CDN complex.
# WT STING = WT STING (Homo sapiens, UniProt Q86WV6, H232R); assay: Differential scanning fluorimetry (DSF) with WT STING; type: binding; design: truncated human WT STING or AQ STING (amino acid residues 140-343); 8xHis (N, cleaved yes); SUMO (N, cleaved yes); made in house; host or cells: E. coli Rosetta-gami B (DE3); conditions: thermal shift, truncated human WT STING 0.1 mg/ml, 150 μM CDN; for ΔTm at 150 µM: read-out: DSF ΔTm WT STING
# From the text: as §1, §2, §3
# T1 sequence (Q86WV6 140-343 G230A/H232R/R293Q): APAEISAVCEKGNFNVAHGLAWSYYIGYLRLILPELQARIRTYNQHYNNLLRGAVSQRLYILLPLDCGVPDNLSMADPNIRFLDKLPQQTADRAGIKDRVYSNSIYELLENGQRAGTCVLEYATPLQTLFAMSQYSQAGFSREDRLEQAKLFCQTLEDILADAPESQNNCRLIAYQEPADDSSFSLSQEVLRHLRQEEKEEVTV
# WT STING, sequence (Q86WV6 140-343 H232R): as the sequence (Q86WV6 140-343 G230A/H232R/R293Q) above, with A91G, Q154R counted along it
SMILES,ΔTm at 150 µM (AQ STING (G230A-R293Q)) [°C],ΔTm at 150 µM (WT STING) [°C],DSF ΔTm AQ STING (AQ STING (G230A-R293Q)) [°C],DSF ΔTm WT STING (WT STING) [°C]
"Nc1ncc2ncn([C@@H]3O[C@@H]4COP(=O)(O)OC5C(O)[C@@H](COP(=O)(O)OC4C3O)C[C@H]5n3cnc4c(=O)[nH]cnc43)c2n1 (stereo partly drawn) [Compound 119, (6R,8R,15R,17R)-8-(2-amino-9H-purin-9-yl)-3,9,12,18-tetrahydroxy-17-(6-oxo-6,9-dihydro-1H-purin-9-yl)-2,4,7,11,13-pentaoxa-3λ^5,12λ^5-diphosphatricyclo[13.2.1.0^6,10]octadecane-3,12-dione]",13.7,5.2,–,–
"Nc1ncnc2c1ncn2[C@@H]1O[C@@H]2COP(=O)(S)O[C@@H]3[C@H](F)[C@@H](COP(=O)(S)O[C@H]2[C@H]1F)C[C@H]3n1cnc2c(=O)[nH]cnc21 (single isomer, unassigned) [Compound 128a]",16.5,9.3,–,–
Nc1ncnc2c1ncn2[C@@H]1O[C@@H]2COP(=O)(O)O[C@@H]3[C@H](F)[C@@H](COP(=O)(O)O[C@H]2[C@H]1F)C[C@H]3n1cnc2c(=O)[nH]cnc21 [Compound 127],16.8,8.2,–,–
"Nc1ncnc2c1ccn2[C@@H]1O[C@@H]2COP(=O)(O)OC3C(O)[C@@H](COP(=O)(O)OC2C1O)C[C@H]3n1cnc2c(=O)[nH]cnc21 (stereo partly drawn) [Compound 122, (6R,8R,15R,17R)-8-{4-amino-7H-pyrrolo[2,3-d]pyrimidin-7-yl}-3,9,12,18-tetrahydroxy-17-(6-oxo-6,9-dihydro-1H-purin-9-yl)-2,4,7,11,13-pentaoxa-3λ^5,12λ^5-diphosphatricyclo[13.2.1.0^6,10]octadecane-3,12-dione]",14.6,6.7,–,–
"Nc1ncnc2c1ncn2[C@@H]1O[C@@H]2COP(=O)(S)O[C@@H]3[C@H](F)[C@@H](COP(=O)(S)O[C@H]2[C@H]1F)C[C@H]3n1cnc2c(=O)[nH]cnc21 (single isomer, unassigned) [Compound 128c]",–,–,18.2,11.4
"CSc1nc(N)nc2c1ncn2[C@@H]1O[C@@H]2COP(=O)(O)OC3C(O)[C@@H](COP(=O)(O)OC2C1O)C[C@H]3n1cnc2c(=O)[nH]c(N)nc21 (stereo partly drawn) [Compound 112, (6R,8R,15R,17R)-8-[2-amino-6-(methylsulfanyl)-9H-purin-9-yl]-17-(2-amino-6-oxo-6,9-dihydro-1H-purin-9-yl)-3,9,12,18-tetrahydroxy-2,4,7,11,13-pentaoxa-3λ^5,12λ^5-diphosphatricyclo[13.2.1.0^6,10]octadecane-3,12-dione]",4.7,0.6,–,–
"Nc1ncnc2c1ncn2[C@@H]1O[C@@H]2COP(=O)(O)O[C@@H]3[C@@H](F)[C@@H](COP(=O)(O)O[C@H]2[C@H]1O)C[C@H]3n1cnc2c(=O)[nH]cnc21 [Compound 126, (1S,6R,8R,9R,10S,15R,17R,18S)-8-(6-amino-9H-purin-9-yl)-18-fluoro-3,9,12-trihydroxy-17-(6-oxo-6,9-dihydro-1H-purin-9-yl)-2,4,7,11,13-pentaoxa-3λ^5,12λ^5-diphosphatricyclo[13.2.1.0^6,10]octadecane-3,12-dione]",15.8,8.4,–,–
"Cc1cn([C@@H]2O[C@@H]3COP(=O)(O)OC4C(O)[C@@H](COP(=O)(O)OC3C2O)C[C@H]4n2cnc3c(=O)[nH]cnc32)c2ncnc(N)c12 (stereo partly drawn) [Compound 123, (6R,8R,15R,17R)-8-{4-amino-5-methyl-7H-pyrrolo[2,3-d]pyrimidin-7-yl}-3,9,12,18-tetrahydroxy-17-(6-oxo-6,9-dihydro-1H-purin-9-yl)-2,4,7,11,13-pentaoxa-3λ^5,12λ^5-diphosphatricyclo[13.2.1.0^6,10]octadecane-3,12-dione]",12.1,6.3,–,–

# More lines, now with the values ahead:
ΔTm at 150 µM (AQ STING (G230A-R293Q)) [°C],ΔTm at 150 µM (WT STING) [°C],DSF ΔTm AQ STING (AQ STING (G230A-R293Q)) [°C],DSF ΔTm WT STING (WT STING) [°C],SMILES
13.3,5,–,–,"Nc1nc2c(ncn2[C@@H]2C[C@@H]3COP(=O)(O)OC4C(O)[C@H](n5cnc6c(=O)[nH]cnc65)O[C@@H]4COP(=O)(O)OC2C3O)c(=O)[nH]1 (stereo partly drawn) [Compound 104, (6R,8R,15R,17R)-17-(2-amino-6-oxo-6,9-dihydro-1H-purin-9-yl)-3,9,12,18-tetrahydroxy-8-(6-oxo-6,9-dihydro-1H-purin-9-yl)-2,4,7,11,13-pentaoxa-3λ^5,12λ^5-diphosphatricyclo[13.2.1.0^6,10]octadecane-3,12-dione]"
15.2,7.9,–,–,"Nc1nc2c(ncn2[C@@H]2C[C@@H]3COP(=O)(O)OC4C(O)[C@H](n5cnc6c(N)nc(F)nc65)O[C@@H]4COP(=O)(O)OC2C3O)c(=O)[nH]1 (stereo partly drawn) [Compound 103, (6R,8R,15R,17R)-8-(6-amino-2-fluoro-9H-purin-9-yl)-17-(2-amino-6-oxo-6,9-dihydro-1H-purin-9-yl)-3,9,12,18-tetrahydroxy-2,4,7,11,13-pentaoxa-3λ^5,12λ^5-diphosphatricyclo[13.2.1.0^6,10]octadecane-3,12-dione]"
19.8,13.3,–,–,"Nc1nc2c(ncn2[C@@H]2C[C@@H]3COP(=O)(O)OC4C(O)[C@H](n5cnc6c(N)ncnc65)O[C@@H]4COP(=O)(O)OC2C3O)c(=O)[nH]1 (stereo partly drawn) [Compound 102, (6R,8R,15R,17R)-17-(2-amino-6-oxo-6,9-dihydro-1H-purin-9-yl)-8-(6-amino-9H-purin-9-yl)-3,9,12,18-tetrahydroxy-2,4,7,11,13-pentaoxa-3λ^5,12λ^5-diphosphatricyclo[13.2.1.0^6,10]octadecane-3,12-dione]"
14.2,6.3,–,–,"Nc1nc2c(ncn2[C@@H]2C[C@@H]3COP(=O)(O)OC4C(O)[C@H](n5cnc6c(Cl)ncnc65)O[C@@H]4COP(=O)(O)OC2C3O)c(=O)[nH]1 (stereo partly drawn) [Compound 115, (6R,8R,15R,17R)-17-(2-amino-6-oxo-6,9-dihydro-1H-purin-9-yl)-8-(6-chloro-9H-purin-9-yl)-3,9,12,18-tetrahydroxy-2,4,7,11,13-pentaoxa-3λ^5,12λ^5-diphosphatricyclo[13.2.1.0^6,10]octadecane-3,12-dione]"
10.1,4.9,–,–,"CSc1ncnc2c1ncn2[C@@H]1O[C@@H]2COP(=O)(O)OC3C(O)[C@@H](COP(=O)(O)OC2C1O)C[C@H]3n1cnc2c(=O)[nH]c(N)nc21 (stereo partly drawn) [Compound 110, (6R,8R,15R,17R)-17-(2-amino-6-oxo-6,9-dihydro-1H-purin-9-yl)-3,9,12,18-tetrahydroxy-8-[6-(methylsulfanyl)-9H-purin-9-yl]-2,4,7,11,13-pentaoxa-3λ^5,12λ^5-diphosphatricyclo[13.2.1.0^6,10]octadecane-3,12-dione]"
